Measured values taken from article PMC4352033, “SD-208, a Novel Protein Kinase D Inhibitor, Blocks Prostate Cancer Cell Proliferation and Tumor Growth In Vivo by Inducing G2/M Cell Cycle Arrest” (PLoS ONE, 2015).

Key:
Format in all cases: biochemical
[1] = target: T1, PKCδ (Homo sapiens, UniProt Q05655); assay: in vitro radiometric PKC kinase assay
T1 construct: gene PRKCD; recombinant PKCδ

[2] = target: T2, PKCα (Homo sapiens, UniProt P17252)
T2 construct: gene PRKCA; recombinant PKCα

[3] = target: T3, protein kinase D1 (PKD1) (Homo sapiens, UniProt Q15139); assay: in vitro radiometric kinase assay, 10-point curve; Lineweaver-Burk
T3 construct: gene PRKD1; GST-tagged recombinant human PKD1
T3 sequence (Q15139 1-912): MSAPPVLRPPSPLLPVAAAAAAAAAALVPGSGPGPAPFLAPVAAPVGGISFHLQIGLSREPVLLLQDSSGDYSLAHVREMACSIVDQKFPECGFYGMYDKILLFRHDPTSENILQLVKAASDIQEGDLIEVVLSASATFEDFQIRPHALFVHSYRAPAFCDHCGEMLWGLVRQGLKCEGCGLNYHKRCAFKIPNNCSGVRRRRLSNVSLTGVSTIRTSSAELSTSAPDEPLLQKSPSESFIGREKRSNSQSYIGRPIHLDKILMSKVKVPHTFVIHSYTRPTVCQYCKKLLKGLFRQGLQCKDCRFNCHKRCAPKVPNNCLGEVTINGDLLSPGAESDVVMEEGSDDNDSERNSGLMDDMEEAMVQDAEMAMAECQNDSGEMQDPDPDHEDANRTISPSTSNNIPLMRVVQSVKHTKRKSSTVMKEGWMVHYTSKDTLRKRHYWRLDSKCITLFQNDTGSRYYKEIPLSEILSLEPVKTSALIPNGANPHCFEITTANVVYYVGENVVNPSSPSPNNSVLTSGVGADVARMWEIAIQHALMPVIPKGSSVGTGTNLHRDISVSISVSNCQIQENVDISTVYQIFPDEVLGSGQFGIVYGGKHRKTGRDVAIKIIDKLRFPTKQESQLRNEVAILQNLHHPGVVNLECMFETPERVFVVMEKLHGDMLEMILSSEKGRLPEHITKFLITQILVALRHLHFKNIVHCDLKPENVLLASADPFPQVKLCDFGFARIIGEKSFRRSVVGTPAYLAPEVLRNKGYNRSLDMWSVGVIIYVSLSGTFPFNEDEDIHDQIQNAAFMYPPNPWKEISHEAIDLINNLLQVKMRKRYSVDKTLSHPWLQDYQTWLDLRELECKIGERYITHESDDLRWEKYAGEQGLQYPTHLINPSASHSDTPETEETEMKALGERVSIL

[4] = target: T4, PKD2 (Homo sapiens, UniProt Q9BZL6); assay: in vitro radiometric kinase assay, 10-point curve
T4 construct: gene PRKD2; recombinant human PKD2
T4 sequence (Q9BZL6 1-878): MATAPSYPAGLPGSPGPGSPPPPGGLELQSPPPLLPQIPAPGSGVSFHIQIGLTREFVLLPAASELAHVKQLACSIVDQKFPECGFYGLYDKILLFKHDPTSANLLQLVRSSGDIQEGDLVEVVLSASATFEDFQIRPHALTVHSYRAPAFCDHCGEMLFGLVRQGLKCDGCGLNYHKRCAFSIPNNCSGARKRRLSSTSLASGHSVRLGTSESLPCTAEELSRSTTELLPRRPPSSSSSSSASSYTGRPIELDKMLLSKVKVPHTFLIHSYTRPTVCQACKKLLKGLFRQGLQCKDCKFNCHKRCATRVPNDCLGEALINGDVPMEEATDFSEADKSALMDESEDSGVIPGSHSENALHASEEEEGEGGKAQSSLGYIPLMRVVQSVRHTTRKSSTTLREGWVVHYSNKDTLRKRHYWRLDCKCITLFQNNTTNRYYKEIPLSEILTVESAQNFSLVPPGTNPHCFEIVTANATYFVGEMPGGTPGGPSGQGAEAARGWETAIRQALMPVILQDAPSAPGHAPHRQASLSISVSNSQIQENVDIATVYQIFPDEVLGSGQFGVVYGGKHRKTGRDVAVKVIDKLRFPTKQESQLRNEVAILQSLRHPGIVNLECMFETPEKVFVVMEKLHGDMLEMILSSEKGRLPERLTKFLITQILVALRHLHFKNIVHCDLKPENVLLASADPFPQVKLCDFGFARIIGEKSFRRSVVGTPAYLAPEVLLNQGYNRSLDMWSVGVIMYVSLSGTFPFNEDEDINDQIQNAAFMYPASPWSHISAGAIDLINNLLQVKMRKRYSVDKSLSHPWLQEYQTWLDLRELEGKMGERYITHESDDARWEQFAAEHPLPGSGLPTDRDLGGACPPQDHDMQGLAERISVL

[5] = target: T5, PKD3 (Homo sapiens, UniProt O94806); assay: in vitro radiometric kinase assay, 10-point curve
T5 construct: gene PRKD3; recombinant human PKD3
T5 sequence (O94806 1-890): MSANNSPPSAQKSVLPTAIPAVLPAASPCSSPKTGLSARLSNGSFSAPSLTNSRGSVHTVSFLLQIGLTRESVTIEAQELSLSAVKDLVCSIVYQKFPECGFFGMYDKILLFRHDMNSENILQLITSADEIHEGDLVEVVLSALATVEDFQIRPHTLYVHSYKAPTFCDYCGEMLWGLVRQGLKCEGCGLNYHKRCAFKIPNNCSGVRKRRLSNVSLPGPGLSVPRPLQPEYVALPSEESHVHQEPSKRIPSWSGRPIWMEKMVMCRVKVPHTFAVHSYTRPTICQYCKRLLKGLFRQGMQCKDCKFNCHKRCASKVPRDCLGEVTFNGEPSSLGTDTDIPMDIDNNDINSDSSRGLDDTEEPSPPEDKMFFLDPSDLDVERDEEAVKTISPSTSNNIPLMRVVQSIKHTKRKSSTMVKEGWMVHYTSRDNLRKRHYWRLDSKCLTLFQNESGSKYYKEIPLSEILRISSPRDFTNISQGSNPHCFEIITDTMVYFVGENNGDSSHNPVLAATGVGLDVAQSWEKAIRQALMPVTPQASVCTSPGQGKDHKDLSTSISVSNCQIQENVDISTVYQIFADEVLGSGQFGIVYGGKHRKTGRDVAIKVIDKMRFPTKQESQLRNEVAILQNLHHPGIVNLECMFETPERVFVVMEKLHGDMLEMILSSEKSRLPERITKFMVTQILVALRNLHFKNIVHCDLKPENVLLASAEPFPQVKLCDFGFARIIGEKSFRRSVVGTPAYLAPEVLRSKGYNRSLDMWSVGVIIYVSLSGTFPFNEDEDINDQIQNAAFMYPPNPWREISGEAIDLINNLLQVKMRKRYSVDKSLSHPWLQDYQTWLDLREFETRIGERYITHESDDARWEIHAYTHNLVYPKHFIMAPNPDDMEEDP

T1 sequence (Q05655 whole entry): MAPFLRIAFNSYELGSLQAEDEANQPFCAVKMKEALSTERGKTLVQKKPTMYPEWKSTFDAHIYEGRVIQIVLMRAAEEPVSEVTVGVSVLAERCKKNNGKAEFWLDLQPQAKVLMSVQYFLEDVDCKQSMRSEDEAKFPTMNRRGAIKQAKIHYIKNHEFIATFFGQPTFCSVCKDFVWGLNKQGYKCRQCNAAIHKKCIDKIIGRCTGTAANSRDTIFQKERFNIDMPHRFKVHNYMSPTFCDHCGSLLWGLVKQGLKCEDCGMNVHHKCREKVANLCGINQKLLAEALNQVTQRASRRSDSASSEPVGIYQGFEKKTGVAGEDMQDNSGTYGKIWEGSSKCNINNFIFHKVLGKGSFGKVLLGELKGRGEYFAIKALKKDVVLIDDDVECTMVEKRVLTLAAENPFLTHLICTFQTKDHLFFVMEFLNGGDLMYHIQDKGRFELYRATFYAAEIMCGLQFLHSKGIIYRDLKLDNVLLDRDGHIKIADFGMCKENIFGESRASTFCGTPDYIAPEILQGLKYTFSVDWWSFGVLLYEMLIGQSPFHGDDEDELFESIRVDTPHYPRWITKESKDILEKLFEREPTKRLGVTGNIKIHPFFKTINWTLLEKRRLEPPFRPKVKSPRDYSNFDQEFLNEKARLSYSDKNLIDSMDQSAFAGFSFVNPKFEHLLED

SMILES: CN(C)CCCn1cc(C2=C(c3c[nH]c4ccccc34)C(=O)NC2=O)c2ccccc21 [GF109203X]
- in vitro radiometric PKC kinase assay [1]: GF109203X was tested as a positive control and it potently and concentration-dependently inhibited PKCα and PKCδ
- in vitro radiometric PKC kinase assay [2]: GF109203X was tested as a positive control and it potently and concentration-dependently inhibited PKCα and PKCδ

SMILES: Fc1ccc(Cl)cc1-c1nc(Nc2ccncc2)c2nccnc2n1 [SD-208]
- IC50 [3]: 107 nM
- IC50 [4]: 93.5 nM
- IC50 [5]: 105 nM
